Where “and” joins values, the source holds several entries; their conditions need not be identical. Equal entries are not always repeated.
Experiments:
Assay type in all cases: physicochemical
[1] = Release of DMPC from pooled Example 6 lenses into ATF, 24 hours, HPLC; conditions: pooled lenses (35 lenses in 3.5 mL ATF and 50 lenses in 5 mL ATF), 37° C.
Method: The release profile of contact lenses with comfort agents (DMPC and L-PEG) are determined as follows. Lenses are placed in release media (artificial tear fluid (ATF) as described in Example 4) for release testing. Lenses are pooled (35 lenses in 3.5 mL ATF and 50 lenses in 5 mL ATF) and then gently agitated at 37° C. for 24 hours. At the conclusion of the 24-hour release study, the lenses are removed from the ATF. The remaining ATF is then transferred to centrifuge tubes and dried overnight under vacuum in a centrifugal evaporator.
The dried residue from the ATF is then resuspended in 1-propanol (1 mL 1-propanol for each original 5 mL ATF) using sonication to assist in resuspension. The resulting solution is analyzed for presence of DMPC using HPLC.

[2] = First release test: lens in artificial tear fluid (ATF) refreshed every 30 min, DMPC left in lens; conditions: first test: 500 μL ATF replaced every 30 min, 35° C., 8 hrs, n=5
Method: Lenses (as prepared in Example 3) are subjected to one of two release tests in artificial tear fluid (ATF) prepared without any phospholipids and having a composition shown in Table 1. The first test is designed to maximize release of DMPC from the lens by refreshing the ATF frequently. A single lens is placed in 500 μL of ATF and incubated at 35° C. for 8 hrs. Every 30 min, the sample is vortexed, the ATF is withdrawn, a fresh 500 μL aliquot of ATF is added to the lens, the sample is again vortexed, and the sample is returned to the incubator. At the conclusion of 8 hrs, the lenses are removed from ATF, placed in 1 mL clean PBS, and submitted for analysis of DMPC content. The second test is designed to try to maximize the amount of DM PC in ATF by leaving the lens in ATF for the entire release test. A single lens is placed in 1 mL ATF and incubated at 35° C. for 8 hrs. Every 30 min, the sample is vortexed and then returned to the incubator. At the conclusion of 8 hrs, the lens is removed from the ATF and the ATF is submitted for analysis. All analysis is done using an enzymatic assay method.

[3] = Total content of radio-labeled DMPC in lenses (extraction, scintillation counting); conditions: radio labeled DMPC (C14) loaded from 1-propanol
Method: (§1) Lenses are prepared according to the procedures described in Example 3, except that DMPC used in this example is a radio labeled DMPC (C14). The radio labeled DMPC is supplied by New England Nuclear (Waltham, Mass.). Lenses are loaded with radio-labeled DMPC by dipping the lenses into a solution of the radio-labeled DMPC in 1-propanol. Loaded lenses are then subjected to release testing using artificial tear fluid (ATF) as the release media. Components listed in Table 2 are dissolved in a phosphate buffered saline solution to provide a physiologically acceptable pH and osmolality.
The DMPC content of the lenses is also measured using one of two techniques: • (1) Lenses that had previously been subjected to release testing are fully extracted and the eluate is then analyzed for DMPC content. This amount of DMPC is numerically added to the DMPC already quantified in the release media. Thus, all DMPC is accounted for, cradle-to-grave. • (2) Other lenses, not subject to release testing, are also extracted to determine initial DMPC content (total loading of DM PC in lenses).

[4] = Control lenses: DMPC loading of Example 3 lenses (enzymatic assay); conditions: control lenses of Example 3, no release test, n=5
Text: Lenses are demolded and extracted with an organic solvent (e.g., isopropanol, 1-propanol, Dowanol, methyl ethyl ketone (MEK), or the like) and then dipped in a Dowanol PM (or alternatively MEK or 1-propanol) solution of polyacrylic acid (0.1% by weight, pH ˜2.0). The lenses are then rinsed for 60 seconds in water and then dipped in a Dowanol (or alternatively MEK or 1-propanol) solution of 1,2-dimyristoyl-sn-glycero-3-phosphocholine (DMPC, 1%) for about 60 to about 100 seconds. The lenses are then rinsed in water for 120 seconds and packaged in PBS. Lenses are then autoclaved for 30 min at 121° C. The second test is designed to try to maximize the amount of DM PC in ATF by leaving the lens in ATF for the entire release test. A single lens is placed in 1 mL ATF and incubated at 35° C. for 8 hrs. Every 30 min, the sample is vortexed and then returned to the incubator. At the conclusion of 8 hrs, the lens is removed from the ATF and the ATF is submitted for analysis. All analysis is done using an enzymatic assay method. A control set of lenses is submitted to confirm loading of the lenses with DMPC. This control sample set (n=5) show an average loading of 200 μg DMPC per lens.

[5] = Second release test: lens left in ATF for 8 hrs, DMPC in ATF; conditions: second test: 1 mL ATF, 35° C., 3 pooled ATF samples, just below dynamic range of the assay
Method: Lenses (as prepared in Example 3) are subjected to one of two release tests in artificial tear fluid (ATF) prepared without any phospholipids and having a composition shown in Table 1. The second test is designed to try to maximize the amount of DM PC in ATF by leaving the lens in ATF for the entire release test. A single lens is placed in 1 mL ATF and incubated at 35° C. for 8 hrs. Every 30 min, the sample is vortexed and then returned to the incubator. At the conclusion of 8 hrs, the lens is removed from the ATF and the ATF is submitted for analysis. All analysis is done using an enzymatic assay method. Three ATF samples are pooled to increase the DMPC signal. […] The value for the 3 pooled samples is just below the dynamic range of the assay, making confidence in the quantified DMPC levels difficult yet still providing evidence of DMPC release from the lenses.

[6] = Comfort agent content of Example 6 lenses (exhaustive isopropanol extraction); conditions: comfort agent added to lens formulation, after autoclave
Method: A lens formulation is prepared as detailed in Example 3 where 1,2-dimyristoyl-sn-glycero-3-phosphocholine (DMPC) is added to the formulation at a concentration of 0.75% by weight and where the formulation solvent, 1-propanol, is reduced to 22.65% by weight. Lens curing is as described in Example 3. The lenses are demolded and then extracted in methyl ethyl ketone followed by a rinse in DI water for 56 seconds. The lenses are then dipped in a solution of polyacrylic acid (0.36% wt/vol in 1-propanol, pH-2). The lenses are then rinsed in water for 120 seconds and packaged in phosphate buffered saline. Lenses are then autoclaved for 30 minutes at 121° C. The content of comfort agents, DMPC and L-PEG, are determined as follows. Lenses are exhaustively extracted in isopropanol and the extract is tested for DMPC and N-(carbonyl-methoxypolyethylene glycol-2000)-1,2-disteaoyl-sn-glycero-3-phosphoethanolamine, sodium salt (L-PEG-2000) content. Lenses contain on average 30 μg DMPC and 10 μg L-PEG-2000 per lens.

[7] = Release of radio-labeled DMPC from lens into ATF over 24 hours (scintillation counter); conditions: 1 mL ATF, radio labeled DMPC (C14)
Method: as §1
Release tests are conducted by placing a single lens in 1 mL of ATF and then incubating the sample for 24 hours. At specified time points of 0, 2, 4, 10, and 24 hours, small samples of release media are pulled and analyzed for DM PC content using a scintillation counter (C14 emits a weak beta particle).

Compound	DMPC in ATF after release [1]	average DMPC content of lens after release [2]	total DMPC content of the lenses [3]	average loading of DMPC per lens [4]	DMPC in the ATF equivalent per lens [5]	average content per lens [6]	DMPC release order ([7]; 0-24 hours)	average cumulative DMPC release from the lens ([7]; 24-hour test period, eight samples)
CCCCCCCCCCCCCC(=O)OC[C@H](COP(=O)([O-])OCC[N+](C)(C)C)OC(=O)CCCCCCCCCCCCC [DMPC, 1,2-dimyristoyl-sn-glycero-3-phosphocholine]	0.48 μg per mL ATF and 0.69 μg per mL ATF	177 μg DMPC per lens	32.1±2.7 micrograms of DMPC per lens	200 μg DMPC per lens	6 μg DM PC per lens	30 μg per lens	first order	1.3 µg
N-(carbonyl-methoxypolyethylene glycol-2000)-1,2-distearoyl-sn-glycero-3-phosphoethanolamine sodium salt [L-PEG-2000]						10 μg per lens		

Reference: patent US10913224B2, “Ophthalmic devices for delivery of hydrophobic comfort agents” (Novartis AG, priority 2008, dated 2021)
